Results published in US20040063662A1, “Selenophene anti-tumor agents” (priority 1996, published 2004).

Tests used:
LOX IMVI = assay: NCI human tumor cell panel: LOX IMVI (Melanoma); assay type: cell-based
OVCAR-5 = assay: NCI human tumor cell panel: OVCAR-5 (Ovarian Cancer); assay type: cell-based
SK-MEL-28 = assay: NCI human tumor cell panel: SK-MEL-28 (Melanoma); assay type: cell-based
SR = assay: NCI human tumor cell panel: SR (Leukemia); assay type: cell-based
HS 578T = assay: NCI human tumor cell panel: HS 578T (Breast Cancer); assay type: cell-based
NCI-H322M = assay: cells; assay type: cell-based; settings: Homo sapiens
M14 = assay: NCI human tumor cell panel: M14 (Melanoma); assay type: cell-based
TK-10 = assay: NCI human tumor cell panel: TK-10 (Renal Cancer); assay type: cell-based
EKVX = assay: NCI human tumor cell panel: EKVX (Non-Small Cell Lung Cancer); assay type: cell-based
NCI-H522 = assay: NCI human tumor cell panel: NCI-H522 (Non-Small Cell Lung Cancer)
786-0 = assay: NCI human tumor cell panel: 786-0 (Renal Cancer); assay type: cell-based
PC-3 = assay: NCI human tumor cell panel: PC-3 (Prostate Cancer); assay type: cell-based
MDA-N = assay: NCI human tumor cell panel: MDA-N (Breast Cancer); assay type: cell-based
HCC-2998 = assay: NCI human tumor cell panel: HCC-2998 (Colon Cancer); assay type: cell-based
NCI-H23 = assay: NCI human tumor cell panel: NCI-H23 (Non-Small Cell Lung Cancer); assay type: cell-based
HT29 = assay: NCI human tumor cell panel: HT29 (Colon Cancer); assay type: cell-based; settings: HT-29, HT29, read-out: Log10 TGI (converted)
HOP-62 = assay: NCI human tumor cell panel: HOP-62 (Non-Small Cell Lung Cancer); assay type: cell-based; settings: HOP-62, read-out: Log10 TGI (converted)
HOP-92 = assay: NCI human tumor cell panel: HOP-92 (Non-Small Cell Lung Cancer)
MCF7/ADR-RES = assay: NCI human tumor cell panel: MCF7/ADR-RES (Breast Cancer); assay type: cell-based
SK-MEL-2 = assay: NCI human tumor cell panel: SK-MEL-2 (Melanoma); assay type: cell-based
OVCAR-4 = assay: NCI human tumor cell panel: OVCAR-4 (Ovarian Cancer); assay type: cell-based; settings: OVCAR-4, read-out: Log10 TGI (converted)
SNB-19 = assay: NCI human tumor cell panel: SNB-19 (CNS Cancer); assay type: cell-based
SNB-75 = assay: NCI human tumor cell panel: SNB-75 (CNS Cancer); assay type: cell-based
IGROV1 = assay: NCI human tumor cell panel: IGROV1 (Ovarian Cancer); assay type: cell-based
UO-31 = assay: NCI human tumor cell panel: UO-31 (Renal Cancer); assay type: cell-based
U251 = assay: NCI human tumor cell panel: U251 (CNS Cancer); assay type: cell-based
HCT-15 = assay: NCI human tumor cell panel: HCT-15 (Colon Cancer); assay type: cell-based
MDA-MB-435 = assay: NCI human tumor cell panel: MDA-MB-435 (Breast Cancer); assay type: cell-based
SF-295 = assay: NCI human tumor cell panel: SF-295 (CNS Cancer); assay type: cell-based
SF-539 = assay: NCI human tumor cell panel: SF-539 (CNS Cancer); assay type: cell-based
NCI-H460 = assay: NCI human tumor cell panel: NCI-H460 (Non-Small Cell Lung Cancer); assay type: cell-based; settings: NCI-H460, read-out: Log10 TGI (converted)
BT-549 = assay: NCI human tumor cell panel: BT-549 (Breast Cancer); assay type: cell-based
[1] = read-out: Log10 GI50 (converted)
[2] = read-out: Log10 TGI (converted)

OCc1ccc(-c2ccc(-c3ccc[se]3)s2)[se]1 [compound 676631] was tested. Which GI50 (LOX IMVI; [1]) did it give?
The GI50 was 15.1 µM.

What about the IC (TGI) (LOX IMVI; [2]) of the same compound?
Its IC (TGI) is 36.3 µM.

What about the GI50 (OVCAR-5; OVCAR-5, read-out: Log10 GI50 (converted)) of the same compound?
Its GI50 is 0.0316 µM.

And the IC (TGI) (OVCAR-5; OVCAR-5, read-out: Log10 TGI (converted))?
The IC (TGI) was 0.209 µM.

And the GI50 (SK-MEL-28; SK-MEL-28, read-out: Log10 GI50 (converted))?
The GI50 was 66.1 µM.

What about the IC (TGI) (SK-MEL-28; SK-MEL-28, read-out: Log10 TGI (converted)) of the same compound?
Its IC (TGI) is > 100 µM.

And the GI50 (SR; [1])?
The GI50 was > 100 µM.

What about the IC (TGI) (SR; [2]) of the same compound?
The IC (TGI) was > 100 µM.

And the GI50 (HS 578T; [1])?
The GI50 was > 100 µM.

And the IC (TGI) (HS 578T; [2])?
The IC (TGI) was > 100 µM.

And the GI50 (NCI-H322M; [1])?
The GI50 was 21.9 µM.

What about the IC (TGI) (NCI-H322M; [2]) of the same compound?
The IC (TGI) was > 100 µM.

And the GI50 (M14; M14, read-out: Log10 GI50 (converted))?
Its GI50 is 20 µM.

What about the IC (TGI) (M14; M14, read-out: Log10 TGI (converted)) of the same compound?
Its IC (TGI) is > 100 µM.

And the GI50 (TK-10; TK-10, read-out: Log10 GI50 (converted))?
The GI50 was 0.0501 µM.

And the IC (TGI) (TK-10; TK-10, read-out: Log10 TGI (converted))?
Its IC (TGI) is 0.372 µM.

What about the GI50 (EKVX; [1]) of the same compound?
Its GI50 is > 100 µM.

And the IC (TGI) (EKVX; [2])?
The IC (TGI) was > 100 µM.

And the GI50 (NCI-H522; NCI-H522, read-out: Log10 GI50 (converted))?
Its GI50 is 5.25 µM.

What about the IC (TGI) (NCI-H522; NCI-H522, read-out: Log10 TGI) of the same compound?
The IC (TGI) was 21.4 µM.

What about the GI50 (786-0; 786-0, read-out: Log10 GI50 (converted)) of the same compound?
Its GI50 is > 100 µM.

What about the IC (TGI) (786-0; 786-0, read-out: Log10 TGI (converted)) of the same compound?
Its IC (TGI) is > 100 µM.

And the GI50 (PC-3; PC-3, read-out: Log10 GI50 (converted))?
The GI50 was 52.5 µM.

And the IC (TGI) (PC-3; PC-3, read-out: Log10 TGI (converted))?
The IC (TGI) was > 100 µM.

And the GI50 (MDA-N; [1])?
The GI50 was 16.6 µM.

And the IC (TGI) (MDA-N; [2])?
Its IC (TGI) is 43.7 µM.

And the GI50 (HCC-2998; HCC-2998, read-out: Log10 GI50 (converted))?
The GI50 was 42.7 µM.

And the IC (TGI) (HCC-2998; HCC-2998, read-out: Log10 TGI (converted))?
Its IC (TGI) is > 100 µM.

And the GI50 (NCI-H23; NCI-H23, read-out: Log10 GI50 (converted))?
The GI50 was 16.6 µM.

What about the IC (TGI) (NCI-H23; NCI-H23, read-out: Log10 TGI (converted)) of the same compound?
The IC (TGI) was 38.9 µM.

And the IC (TGI) (HT29)?
The IC (TGI) was > 100 µM.

What about the IC (TGI) (HOP-62) of the same compound?
The IC (TGI) was > 100 µM.

What about the GI50 (HOP-92; HOP-92, read-out: Log10 GI50 (converted)) of the same compound?
Its GI50 is > 100 µM.

What about the IC (TGI) (HOP-92; HOP-92, read-out: Log10 TGI) of the same compound?
The IC (TGI) was > 100 µM.

And the GI50 (MCF7/ADR-RES; [1])?
The GI50 was 10 µM.

What about the IC (TGI) (MCF7/ADR-RES; [2]) of the same compound?
Its IC (TGI) is 31.6 µM.

And the GI50 (SK-MEL-2; SK-MEL-2, read-out: Log10 GI50 (converted))?
Its GI50 is > 100 µM.

What about the IC (TGI) (SK-MEL-2; SK-MEL-2, read-out: Log10 TGI (converted)) of the same compound?
The IC (TGI) was > 100 µM.

And the IC (TGI) (OVCAR-4)?
Its IC (TGI) is > 100 µM.

And the GI50 (SNB-19; SNB-19, read-out: Log10 GI50 (converted))?
The GI50 was 17.4 µM.

And the IC (TGI) (SNB-19; SNB-19, read-out: Log10 TGI (converted))?
Its IC (TGI) is > 100 µM.

What about the GI50 (SNB-75; SNB-75, read-out: Log10 GI50 (converted)) of the same compound?
Its GI50 is 41.7 µM.

And the IC (TGI) (SNB-75; SNB-75, read-out: Log10 TGI (converted))?
The IC (TGI) was > 100 µM.

And the GI50 (IGROV1; IGROV-1, IGROV1, read-out: Log10 GI50 (converted))?
Its GI50 is 0.0813 µM.

What about the IC (TGI) (IGROV1; IGROV-1, IGROV1, read-out: Log10 TGI (converted)) of the same compound?
Its IC (TGI) is 0.603 µM.

What about the GI50 (UO-31; UO-31, read-out: Log10 GI50 (converted)) of the same compound?
Its GI50 is > 100 µM.

And the IC (TGI) (UO-31; UO-31, read-out: Log10 TGI (converted))?
Its IC (TGI) is > 100 µM.

What about the GI50 (U251; U-251, U251, read-out: Log10 GI50 (converted)) of the same compound?
Its GI50 is 0.0776 µM.

And the IC (TGI) (U251; U-251, U251, read-out: Log10 TGI (converted))?
Its IC (TGI) is 20 µM.

What about the GI50 (HCT-15; HCT-15, read-out: Log10 GI50 (converted)) of the same compound?
Its GI50 is 27.5 µM.

And the IC (TGI) (HCT-15; HCT-15, read-out: Log10 TGI (converted))?
The IC (TGI) was > 100 µM.

And the GI50 (MDA-MB-435; MDA-MB-435, read-out: Log10 GI50 (converted))?
Its GI50 is 8.13 µM.

And the IC (TGI) (MDA-MB-435; MDA-MB-435, read-out: Log10 TGI (converted))?
Its IC (TGI) is 55 µM.

What about the GI50 (SF-295; SF-295, read-out: Log10 GI50 (converted)) of the same compound?
Its GI50 is 55 µM.

And the IC (TGI) (SF-295; SF-295, read-out: Log10 TGI (converted))?
The IC (TGI) was > 100 µM.

And the GI50 (SF-539; SF-539, read-out: Log10 GI50 (converted))?
Its GI50 is 12.3 µM.

What about the IC (TGI) (SF-539; SF-539, read-out: Log10 TGI (converted)) of the same compound?
Its IC (TGI) is 57.5 µM.

What about the IC (TGI) (NCI-H460) of the same compound?
The IC (TGI) was > 100 µM.

And the GI50 (BT-549; BT-549, read-out: Log10 GI50 (converted))?
The GI50 was 17 µM.

What about the IC (TGI) (BT-549; BT-549, read-out: Log10 TGI (converted)) of the same compound?
Its IC (TGI) is 38 µM.
